Experimental data reported in patent US8765730B2 (Hoffmann-La Roche Inc, priority 2010, dated 2014).

target: T1, human GPBAR1 receptor (Homo sapiens, UniProt Q8TDU6); test: functional cAMP assay in CHO-dhfr(minus) cells expressing human GPBAR1 receptors; assay type: cell-based; details: human EC50, functional cAMP assay, 30 min at 30° C.
T1 construct: expressed in transfected cells
T1 sequence (Q8TDU6 1-330): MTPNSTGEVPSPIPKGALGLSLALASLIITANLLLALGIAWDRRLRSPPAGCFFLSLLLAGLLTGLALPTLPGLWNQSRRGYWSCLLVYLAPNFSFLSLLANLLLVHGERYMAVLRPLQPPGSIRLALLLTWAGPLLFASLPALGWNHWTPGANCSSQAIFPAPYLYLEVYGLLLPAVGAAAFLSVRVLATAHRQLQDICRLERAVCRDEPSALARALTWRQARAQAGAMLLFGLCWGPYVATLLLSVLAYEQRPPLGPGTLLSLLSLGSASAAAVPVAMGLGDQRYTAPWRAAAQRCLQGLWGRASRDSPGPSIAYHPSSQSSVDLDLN
In short: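 Agonist cAMP read-out: stable GPBAR1 CHO-dhfr− clone, 30 min compound exposure at 30° C following 30 min IBMX (1 mM) preincubation in Krebs Ringer bicarbonate. Time-resolved energy-transfer detection gives EC50; parental CHO cells serve as counter-screen.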

| Structure (SMILES) | EC50 |
| --- | --- |
| Cc1cc(/C(CC(c2ccc(C(=O)NCCN3CCS(=O)(=O)CC3)cc2)c2ccc(F)cc2F)=N/O)ccn1 (stereo not drawn) [Example 441, 4-[1-(2,4-Difluoro-phenyl)-3-[(E)-hydroxyimino]-3-(2-methyl-pyridin-4-yl)-propyl]-N-[2-(1,1-dioxo-1λ^6-thiomorpholin-4-yl)-ethyl]-benzamide] | 39 nM |
| Cc1cc(F)ccc1C(C/C(=N\O)c1ccc(=O)n(C)c1)c1ccc(-c2ccc(NC(=O)CC(=O)O)cc2)cc1 (stereo not drawn) [Example 400, N-{4′-[1-(4-Fluoro-2-methyl-phenyl)-3-[(E)-hydroxyimino]-3-(1-methyl-6-oxo-1,6-dihydro-pyridin-3-yl)-propyl]-biphenyl-4-yl}-malonamic acid] | 49 nM |
| Cc1cc(/C(CC(c2ccc(N3CCOCC3)nc2)c2ccc(F)cc2F)=N/O)ccn1 (stereo not drawn) [Example 443, 3-(2,4-Difluoro-phenyl)-1-(2-methyl-pyridin-4-yl)-3-(6-morpholin-4-yl-pyridin-3-yl)-propan-1-one oxime] | 98 nM |
| Cn1cc(/C(CC(c2ccc(S(C)(=O)=O)cc2)c2cc(Cl)ccc2Cl)=N/O)ccc1=O (stereo not drawn) [Example 350, (E)-5-(3-(2,5-Dichlorophenyl)-1-(hydroxyimino)-3-(4-(methylsulfonyl)phenyl)propyl)-1-methylpyridin-2(1H)-one] | 129 nM |
| Cn1cc(/C(CC(c2ccc(-c3ccc(C(=O)O)c(F)c3)cc2)c2ccc(Cl)cc2Cl)=N/O)ccc1=O (stereo not drawn) [Example 473, 4′-[1-(2,4-Dichloro-phenyl)-3-[(E)-hydroxyimino]-3-(1-methyl-6-oxo-1,6-dihydro-pyridin-3-yl)-propyl]-3-fluoro-biphenyl-4-carboxylic acid] | 29 nM |
| Cc1[nH]c2ccccc2c1C(CC(=NO)c1ccncc1)c1ccc(N(C)C)cc1 (racemic) [Example 63, 3-(4-Dimethylamino-phenyl)-3-(2-methyl-1H-indol-3-yl)-1-pyridin-4-yl-propan-1-one oxime] | 2730 nM |
| Cn1cc(/C(CC(c2ccc(F)cc2)c2ccc(Br)cc2)=N/O)ccc1=O (stereo not drawn) [Example 479, 5-{3-(4-Bromo-phenyl)-3-(4-fluoro-phenyl)-1-[(E)-hydroxyimino]-propyl}-1-methyl-1H-pyridin-2-one] | 13 nM |
| Cn1cc(/C(CC(c2ccc(C(=O)NC3COC3)c(F)c2)c2ccccc2Cl)=N/O)ccc1=O (stereo not drawn) [Example 220, (E)-4-(1-(2-Chlorophenyl)-3-(hydroxyimino)-3-(1-methyl-6-oxo-1,6-dihydropyridin-3-yl)propyl)-2-fluoro-N-(oxetan-3-yl)benzamide] | 680 nM |
| Cc1cc(Cl)ccc1C(C/C(=N\O)c1ccc(=O)n(C)c1)c1ccc(NS(C)(=O)=O)cc1 (stereo not drawn) [Example 353, N-{4-[1-(4-Chloro-2-methyl-phenyl)-3-[(E)-hydroxyimino]-3-(1-methyl-6-oxo-1,6-dihydro-pyridin-3-yl)-propyl]phenyl}-methanesulfonamide] | 274 nM |
| Cc1cc(/C(C[C@@H](c2ccc(-c3ccc(C(=O)O)c(Cl)c3)cc2)c2ccc(Cl)cc2F)=N/O)ccn1 (single isomer, unassigned) [Example 453, (+)-3-Chloro-4′-[1-(4-chloro-2-fluoro-phenyl)-3-[(E)-hydroxyimino]-3-(2-methyl-pyridin-4-yl)-propyl]-biphenyl-4-carboxylic acid] | 5 nM |
| CN(CCO)C(=O)c1cccc(C(C/C(=N\O)c2ccc(=O)n(C)c2)c2ccc(Cl)cc2F)c1 (stereo not drawn) [Example 321, (E)-3-(1-(4-Chloro-2-fluorophenyl)-3-(hydroxyimino)-3-(1-methyl-6-oxo-1,6-dihydropyridin-3-yl)propyl)-N-(2-hydroxyethyl)-N-methylbenzamide] | 5200 nM |
| O/N=C(\CC(c1ccccc1)c1ccc(C2CC2)cc1)c1ccncc1 (stereo not drawn) [Example 16, (E)-3-(4-Cyclopropyl-phenyl)-3-phenyl-1-pyridin-4-yl-propan-1-one oxime] | 178 nM |
| Cc1ccccc1C(C/C(=N\O)c1cc(F)cc(F)c1)c1ccc(-c2cncnc2)cc1 (stereo not drawn) [Example 54, (E)-1-(3,5-Difluoro-phenyl)-3-(4-pyrimidin-5-yl-phenyl)-3-o-tolyl-propan-1-one oxime] | 2580 nM |
| Cn1cc(/C(CC(c2ccc(Br)cc2)c2ccccc2Cl)=N/O)ccc1=O (stereo not drawn) [Example 203, 5-{3-(4-Bromo-phenyl)-3-(2-chloro-phenyl)-1-[(E)-hydroxyimino]-propyl}-1-methyl-1H-pyridin-2-one] | 12 nM |
| Cc1cc(/C(C[C@H](c2ccc(-c3ccc(C(=O)O)c(Cl)c3)cc2)c2ccc(Cl)cc2F)=N/O)ccn1 [Example 452, (−)-3-Chloro-4′-[1-(4-chloro-2-fluoro-phenyl)-3-[(E)-hydroxyimino]-3-(2-methyl-pyridin-4-yl)-propyl]-biphenyl-4-carboxylic acid] | 15 nM |

Second part, the molecule after the results:

| EC50 | Structure (SMILES) |
| --- | --- |
| 14 nM | Cc1cc(/C(C[C@H](c2ccc(C3=CCN(S(C)(=O)=O)CC3)cc2)c2ccccc2C)=N/O)ccn1 [Example 376, (R,E)-1-(2-Methylpyridin-4-yl)-3-(4-(1-(methylsulfonyl)-1,2,3,6-tetrahydropyridin-4-yl)phenyl)-3-o-tolylpropan-1-one oxime] |
| 4 nM | Cc1cc(/C(C[C@H](c2ccc(-c3nnc(C4CC4)o3)cc2)c2ccccc2C)=N/O)ccn1 [Example 418, ((−), E)-3-(4-(5-Cyclopropyl-1,3,4-oxadiazol-2-yl)phenyl)-1-(2-methylpyridin-4-yl)-3-o-tolylpropan-1-one oxime] |
| 578 nM | Cc1cc(C(CC(c2cccc(-c3ccc(S(C)(=O)=O)cc3)c2)c2ccccc2C)=NO)ccn1 (racemic) [Example 104, 3-(4′-Methanesulfonyl-biphenyl-3-yl)-1-(2-methyl-pyridin-4-yl)-3-o-tolyl-propan-1-one oxime] |
| 66 nM | CS(=O)(=O)c1ccc(-c2ccc(C(C/C(=N\O)c3ccncc3)c3ccccc3)cc2)cc1 (stereo not drawn) [Example 20, (E)-3-(4′-Methanesulfonyl-biphenyl-4-yl)-3-phenyl-1-pyridin-4-yl-propan-1-one oxime] |
| 993 nM | Cc1cc(Cl)ccc1C(C/C(=N\O)c1ccc(=O)n(CCO)c1)c1ccc(S(C)(=O)=O)cc1 (stereo not drawn) [Example 342, (E)-5-(3-(4-Chloro-2-methylphenyl)-1-(hydroxyimino)-3-(4-(methylsulfonyl)phenyl)-propyl)-1-(2-hydroxyethyl)pyridin-2(1H)-one] |
| 172 nM | Cc1cc(/C(C[C@H](c2ccc(C3CCNCC3)cc2)c2ccc(Cl)cc2C)=N/O)ccn1 [Example 388, (R,E)-3-(4-chloro-2-methylphenyl)-1-(2-methylpyridin-4-yl)-3-(4-(piperidin-4-yl)phenyl)propan-1-one oxime] |
| 14 nM | Cc1cc(/C(C[C@H](c2ccc(-c3cn(CC(=O)O)nn3)cc2)c2ccccc2C)=N/O)ccn1 (single isomer, unassigned) [Example 425, (4-{4-[(−)-3-[(E)-Hydroxyimino]-3-(2-methyl-pyridin-4-yl)-1-o-tolyl-propyl]-phenyl}-[1,2,3]triazol-1-yl)-acetic acid] |
| 32 nM | Cc1cc(/C(C[C@@H](c2ccc(-c3ccc(C(=O)O)cc3)cc2)c2ccc(Cl)cc2C)=N/O)ccn1 [Example 296, 4′-[(S)-1-(4-Chloro-2-methyl-phenyl)-3-[(E)-hydroxyimino]-3-(2-methyl-pyridin-4-yl)-propyl]-biphenyl-4-carboxylic acid] |
| 492 nM | CS(=O)(=O)c1cccc(-c2cccc(C(C/C(=N\O)c3ccncc3)c3ccccc3)c2)c1 (stereo not drawn) [Example 23, (E)-3-(3′-Methanesulfonyl-biphenyl-3-yl)-3-phenyl-1-pyridin-4-yl-propan-1-one oxime] |
| 17 nM | Cc1cc(/C(C[C@H](c2ccc(-c3ccc(C(=O)O)cc3)cc2)c2ccc(F)cc2C)=N/O)ccn1 (single isomer, unassigned) [Example 397, (+)-4′-[1-(4-Fluoro-2-methyl-phenyl)-3-[(E)-hydroxyimino]-3-(2-methyl-pyridin-4-yl)-propyl]-biphenyl-4-carboxylic acid; compound with triethylamine 1:0.75] |
| 61 nM | Cc1cc(C(CC(c2ccc(Br)cc2)c2ccccc2C)=NO)cc(F)n1 (racemic) [Example 126, 3-(4-Bromo-phenyl)-1-(2-fluoro-6-methyl-pyridin-4-yl)-3-o-tolyl-propan-1-one oxime] |
| 650 nM | Cc1cnc(F)c(/C(CC(c2ccc(Br)cc2)c2ccccc2C)=N/O)c1 (stereo not drawn) [Example 128, (E)-3-(4-Bromo-phenyl)-1-(2-fluoro-5-methyl-pyridin-3-yl)-3-o-tolyl-propan-1-one oxime] |
| 4 nM | Cc1cc(/C(C[C@@H](c2ccc(N3CCC(C(=O)O)CC3)cc2)c2ccc(Cl)cc2C)=N/O)ccn1 [Example 285, 1-{4-[(S)-1-(4-Chloro-2-methyl-phenyl)-3-[(E)-hydroxyimino]-3-(2-methyl-pyridin-4-yl)-propyl]-phenyl}-piperidine-4-carboxylic acid] |
| 122 nM | Cc1cc(/C(CC(c2cccc(S(C)(=O)=O)c2)c2ccccc2C)=N/O)ccn1 (stereo not drawn) [Example 391, (E)-1-(2-methylpyridin-4-yl)-3-(3-(methylsulfonyl)phenyl)-3-o-tolylpropan-1-one oxime] |
| 1700 nM | Cc1cc(/C(CC(c2cccc(-c3ccc(C(=O)O)c(F)c3)c2)c2ccccc2C)=N/O)ccn1 (stereo not drawn) [Example 101, 3-Fluoro-3′-[3-[(E)-hydroxyimino]-3-(2-methyl-pyridin-4-yl)-1-o-tolyl-propyl]-biphenyl-4-carboxylic acid] |
